Results published in patent publication US20220386611A1, “NOVEL HETEROARYL-TRIAZOLE COMPOUNDS AS PESTICIDES” (Bayer Aktiengesellschaft, priority 2019, published 2022).

Experiments:
Assay type in all cases: in vivo
[1] = system: Rhipicephalus microplus larvae (strain Parkhurst, resistant against synthetic pyrethroids); test: Rhipicephalus (Boophilus) microplus in-vitro contact test, larval cattle tick; details: 5 μg/cm^2 (=500 g/ha), after 48 hours, read-out: efficacy (larvae dead or moribund)
Experimental: Rhipicephalus (Boophilus) Microplus—In-Vitro Contact Tests Larval Cattle Tick (Strain Parkhurst, Resistant Against Synthetic Pyrethroids)
(§1) 9 mg compound is solved in 1 mL acetone and diluted with acetone to the desired concentration. 250 μL of the test solution is filled in 25 mL glass test tubes and homogeneously distributed on the inner walls by rotation and tilting on a shaking device (2 h at 30 rpm). With a compound concentration of 900 ppm, an inner surface of 44.7 cm^2 and a homogeneous distribution, a dose of 5 μg/cm^2 is achieved.
After the solvent has evaporated, each test tube is filled with 20-50 cattle tick larvae (Rhipicephalus microplus), closed with a perforated lid and incubated in a horizontal position at 85% relative humidity and 27° C. in an incubator. After 48 hours efficacy is determined. The larvae are patted on the ground of the tubes and negative geotactic behaviour is recorded.
An efficacy of 100% means all larvae are dead or moribund; 0% means no larvae are dead or moribund.

[2] = system: adult engorged female ticks (Rhipicephalus microplus); test: Rhipicephalus (Boophilus) microplus injection test; details: 168 h, after 7 days, read-out: efficacy (infertile eggs); for pest or weed control at 0.004 mg: 4 μg/animal; for pest or weed control at 0.02 mg: 20 μg/animal
Experimental: Rhipicephalus (Boophilus) microplus—Injection Test
(§2) Solvent: dimethyl sulfoxide
To produce a suitable preparation of active compound, 10 mg of active compound are dissolved in 0.5 mL solvent, and the concentrate is diluted with solvent to the desired concentration.
Five adult engorged female ticks (Rhipicephalus microplus) are injected with 1 μL compound solution into the abdomen. The ticks are transferred into replica plates and incubated in a climate chamber.
After 7 days egg deposition of fertile eggs is monitored. Eggs where fertility is not visible are stored in a climate chamber till hatching after about 42 days. An efficacy of 100% means all eggs are infertile; 0% means all eggs are fertile.

[3] = system: adult cat fleas (Ctenocephalides felis); test: Ctenocephalides felis in-vitro contact test, adult cat flea; details: after 48 hours, read-out: efficacy (fleas dead or moribund); for pest or weed control at 5 µg/cm2, 500 g/ha: 5 μg/cm^2 (=500 g/ha)
Experimental: as §1, with “Ctenocephalides felis—In-Vitro Contact Tests Adult Cat Flea 9 mg” for “9 mg”
After the solvent has evaporated, each test tube is filled with 5-10 adult cat fleas (Ctenocephalidesfelis), closed with a perforated lid and incubated in a lying position at room temperature and relative humidity.
(§3) After 48 hours efficacy is determined. The fleas are patted on the ground of the tubes and are incubated on a heating plate at 45-50° C. for at most 5 minutes. Immotile or uncoordinated moving fleas, which are not able to escape the heat by climbing upwards, are marked as dead or moribund.
An efficacy of 100% means all fleas are dead or moribund; 0% means no fleas are dead or moribund.

[4] = system: adult unfed cat fleas (Ctenocephalides felis); test: Ctenocephalides felis oral test; details: 48 h
Experimental: Ctenocephalides felis—Oral Test
as §2
To produce a suitable preparation of active compound, 10 mg of active compound are dissolved in 0.5 ml solvent, and the concentrate is diluted with cattle blood to the desired concentration.
Approximately 20 adult unfed cat fleas (Ctenocephalides felis) are placed in flea chambers. The blood chamber, sealed with parafilm on the bottom, are filled with cattle blood supplied with compound solution and placed on the gauze covered top of the flea chamber, so that the fleas are able to suck the blood. The blood chamber is heated to 37° C. whereas the flea chamber is kept at room temperature.
After 2 days mortality in % is determined. 100% means all the fleas have been killed; 0% means none of the fleas have been killed.

[5] = system: adult brown dog ticks (Rhipicephalus sanguineus); test: Rhipicephalus sanguineus in-vitro contact test with adult brown dog ticks; details: 5 μg/cm^2 (=500 g/ha), after 48 hours, read-out: efficacy (ticks dead or moribund)
Experimental: Rhipicephalus sanguineus—In-Vitro Contact Tests with Adult Brown Dog Ticks
as §1
as §3, with “After the solvent has evaporated, each test tube is filled with 5-10 adult brown dog ticks (Rhipicephalus sanguineus), closed with a perforated lid and incubated in a lying position at room temperature and relative humidity. After” for “After”, “ticks” for “fleas”, “ticks,” for “fleas,”
An efficacy of 100% means all ticks are dead or moribund; 0% means no ticks are dead or moribund.

[6] = system: larvae of the banded cucumber beetle (Diabrotica balteata); test: Diabrotica balteata spray test; details: 168 h, 100 g/ha (=32 μg/well), after 7 days, wheat seeds, read-out: efficacy (seedlings grown like untreated, uninfected control)
Experimental: Diabrotica balteata—spray test
Solvent: 78.0 parts by weight of acetone
1.5 parts by weight of dimethylformamide
(§4) Emulsifier: alkylarylpolyglycol ether
(§5) To produce a suitable preparation of active compound, 1 part by weight of active compound is mixed with the stated amount of solvent, and the concentrate is diluted with water, containing an emulsifier concentration of 1000 ppm, to the desired concentration. Further test concentrations are prepared by dilution with emulsifier containing water.
Soaked wheat seeds (Triticum aestivum) are placed in a multiple well plate filled with agar and some water and are incubated for 1 day to germinate (5 seeds per well). The germinated wheat seeds are sprayed with a test solution containing the desired concentration of the active ingredient. Afterwards each unit is infected with 10-20 larvae of the banded cucumber beetle (Diabrotica balteata).
After 7 days efficacy in % is determined. 100% means all the seedlings have grown up like in the untreated, uninfected control; 0% means none of the seedlings have grown.

[7] = system: green peach aphid (Myzus persicae); test: Myzus persicae oral test; details: 120 h
Experimental: Solvent: 100 parts by weight acetone
To produce a suitable preparation of active compound, 1 part by weight of active compound is mixed with the stated amount of solvent, and the concentrate is diluted with water to the desired concentration. 50 μL compound solution is filled in microtiter plates and 150 μL IPL41 insect medium (33%+15% sugar) is added to obtain a total volume of 200 μL per well. Afterwards the plates are sealed with parafilm through which a mixed population of the green peach aphid (Myzus persicae) can suck on the compound preparation.
(§6) After 5 days mortality in % is determined. 100% means all aphids have been killed and 0% means none of the aphids have been killed.

[8] = system: green peach aphid (Myzus persicae); test: Myzus persicae spray test; details: foliar, 120 h, after 5 days, Chinese cabbage leaf disks
Experimental: Myzus persicae—spray test
(§7) Solvent: 78.0 parts by weight acetone • 1.5 parts by weight dimethylformamide
as §4
as §5, with “solvents” for “solvent,”, “and” for “and the concentrate”
Chinese cabbage (Brassica pekinensis) leaf disks infected with all instars of the green peach aphid (Myzus persicae), are sprayed with a preparation of the active ingredient of the desired concentration.
as §6

[9] = system: fall armyworm larvae (Spodoptera frugiperda); test: Spodoptera frugiperda spray test; details: in Zea mays, 168 h
Experimental: Spodoptera frukiperda—Spray Test
as §7, §4
as §5, with “solvents” for “solvent,”, “and” for “and the concentrate”
Maize (Zea mays) leaf sections are sprayed with a preparation of the active ingredient of the desired concentration. Once dry, the leaf sections are infested with fall armyworm larvae (Spodoptera frugiperda).
After 7 days mortality in % is determined. 100% means all caterpillars have been killed and 0% means none of the caterpillars have been killed.

[10] = system: Musca domestica strain WHO-N; test: Musca domestica test (MUSCDO surface treatment & contact assay); details: surface concentration 20 mg/m^2, 30 minutes exposure, 24 hours after contact, read-out: efficacy (mortality)
Experimental: Musca domestica Test (MUSCDO Surface Treatment & Contact Assay)
(§8) Solvent: Aceton+2000 ppm rapeseed oil methyl ester (RME)
(§9) In order to produce a sufficient, active ingredient containing solution it is necessary to solve the test compound in the solvent-mix (acetone at 2 mg/ml/RME 2000 ppm). This solution is pipetted onto a glazed tile and after evaporation of the acetone, adult flies of the species Musca domestica strain WHO-N are placed onto the dried surface. The exposure time is 30 minutes. Mortality in percent (%) is determined 24 hours after contact of the insects to the treated surface. 100% mortality means that all tested insects are dead, whereas 0% means that no insect died.

[11] = system: Aedes aegypti strain MONHEIM; test: Aedes aegypti test (AEDSAE surface treatment & contact assay); details: 24 hours after contact, read-out: efficacy (mortality)
Experimental: Aedes Aegypti Test (AEDSAE Surface Treatment & Contact Assay)
as §8
as §9, with “mosquitoes” for “flies”, “Aedes aegypti” for “Musca domestica”, “MONHEIM” for “WHO-N”

Row | Structure (SMILES) | pest or weed control at 5 µg/cm2 [1] [%] | pest or weed control at 0.004 mg [2] [%] | pest or weed control at 5 µg/cm2, 500 g/ha [3] [%] | mortality at 100 ppm [4] [%] | pest or weed control at 5 µg/cm2, 500 g/ha [5] [%] | pest or weed control at 32 µg/disc, 100 g/ha [6] [%] | mortality at 4 ppm [7] [%] | mortality at 100 g/ha [8] [%] | mortality at 100 g/ha [9] [%] | pest or weed control at 0.02 mg [2] [%] | mortality at 20 mg/m2 [10] [%] | pest or weed control at 1 µg/cm2, 100 g/ha ([3]; 1 μg/cm^2 (=100 g/ha)) [%] | mortality at 4 mg/m2 ([11]; surface concentration 4 mg/m^2, 30 minutes exposure) [%] | mortality at 20 mg/m2 ([11]; surface concentration 20 mg/m^2, 30 minutes exposure) [%]
1 | CC(NC(=O)c1cc(Br)cc(C(F)(F)F)c1)c1nc(Br)nn1-c1ncccn1 (racemic) [Example I-009, 3-bromo-N-[1-(5-bromo-2-pyrimidin-2-yl-1,2,4-triazol-3-yl)ethyl]-5-(trifluoromethyl)benzamide] | 100 | 100 | 80 | 100 | 100 | 100 | 100 | 70 | 67 | – | – | – | – | –
2 | CC(NC(=O)c1cc(Cl)cc(C(F)(F)F)c1)c1nc(Cl)nn1-c1ccc(Cl)cn1 (racemic) [Example I-017, 3-chloro-N-[1-[5-chloro-2-(5-chloro-2-pyridyl)-1,2,4-triazol-3-yl]ethyl]-5-(trifluoromethyl)benzamide] | 100 | 100 | – | – | – | 100 | – | – | 83 | 100 | – | – | – | –
3 | CC(NC(=O)c1cc(Cl)cc(C(F)(F)F)c1)c1nc(I)nn1-c1ccc(Cl)cn1 (racemic) [Example I-019, 3-chloro-N-[1-[2-(5-chloro-2-pyridyl)-5-iodo-1,2,4-triazol-3-yl]ethyl]-5-(trifluoromethyl)benzamide] | 90 | 100 | – | – | – | 100 | – | – | 100 | 100 | 80 to 100 | – | – | –
4 | CC(NC(=O)c1cc(Br)cc(OC(F)(F)F)c1)c1nc(I)nn1-c1ncccn1 (racemic) [Example I-020, 3-bromo-N-[1-(5-iodo-2-pyrimidin-2-yl-1,2,4-triazol-3-yl)ethyl]-5-(trifluoromethoxy)benzamide] | 100 | – | 100 | 100 | 100 | 100 | 100 | 90 | 100 | – | – | 100 | – | –
5 | CC(NC(=O)c1cc(Cl)cc(C(F)(F)F)c1)c1nc(Cl)nn1-c1ncccn1 (stereo not shown) [Example I-004] | 100 | 100 | – | 90 | 100 | 100 | 100 | – | 100 | 100 | – | – | 80 to 100 | 80 to 100
6 | CC(NC(=O)c1cc(Cl)cc(Cl)c1)c1nc(Cl)nn1-c1ncccn1 (stereo not shown) [Example I-005] | – | 100 | – | 100 | 100 | 100 | – | – | 100 | 100 | – | – | – | –
7 | CC(NC(=O)c1cc(Cl)nc(Cl)c1)c1nc(Cl)nn1-c1ncccn1 (stereo not shown) [Example I-006] | 100 | 80 | 100 | 100 | 80 | 100 | 90 | 90 | – | – | – | – | – | –
8 | CC(NC(=O)c1cncc(C(F)(F)F)c1)c1nc(Br)nn1-c1ncccn1 (stereo not shown) [Example I-015] | 100 | 100 | – | 100 | – | 80 | – | – | – | – | – | – | – | –
9 | CC(NC(=O)c1cc(Br)cc(C(F)(F)F)c1)c1nc(I)nn1-c1ncccn1 (stereo not shown) [Example I-022] | 100 | – | – | 90 | 80 | 100 | 100 | – | 100 | – | – | – | – | –
10 | CC(NC(=O)c1cc(Br)cc(Br)c1)c1nc(I)nn1-c1ncccn1 (stereo not shown) [Example I-023] | – | – | – | 100 | – | – | – | – | – | – | – | – | – | –
